The values below come from ChEMBL document CHEMBL5233228, “The cell division protein FtsZ as a cellular target to hit cystic fibrosis pathogens” (Eur J Med Chem, 2020).

Test [1] concerns Staphylococcus aureus. The experiment in a line: Antibacterial activity against Meticillin-Sensitive Staphylococcus aureus assessed as bacterial growth inhibtion incubated for 4 to 6 hrs by broth microdilution method. Format: functional. As to conditions: time 4-6 hrs. (In general: In broth dilution the organism is exposed to a series of concentrations in liquid medium.)
Test [2] has as its target T1, Cell division protein FtsZ (Staphylococcus aureus, UniProt P0A031).
T1 sequence (P0A031 whole entry): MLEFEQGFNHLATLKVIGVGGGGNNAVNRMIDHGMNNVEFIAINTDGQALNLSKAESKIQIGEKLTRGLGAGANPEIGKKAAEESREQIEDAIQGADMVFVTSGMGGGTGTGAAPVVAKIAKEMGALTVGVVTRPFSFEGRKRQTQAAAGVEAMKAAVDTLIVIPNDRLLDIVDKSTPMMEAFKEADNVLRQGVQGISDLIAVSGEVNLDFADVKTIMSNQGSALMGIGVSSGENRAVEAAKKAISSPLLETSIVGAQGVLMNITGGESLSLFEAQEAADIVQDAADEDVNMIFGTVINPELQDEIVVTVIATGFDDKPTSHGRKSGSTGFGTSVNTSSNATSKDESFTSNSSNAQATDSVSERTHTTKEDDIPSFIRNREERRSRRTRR
Kind of test: Inhibition of Staphylococcus aureus recombinant FTsZ preincubated for 10 mins followed by compound addition measured after 30 mins by Cytophos phosphate assay.

The test system of test [3] is Staphylococcus aureus. Kind of test: Antibacterial activity against Meticillin-Sensitive Staphylococcus aureus assessed as bacterial growth inhibtion incubated for 14 to 16 hrs. As to conditions: time 14-16 hrs. The test is classed as functional.
Test [4] concerns Staphylococcus aureus. The experiment in a line: Antibacterial activity against Meticillin-Resistant Staphylococcus aureus assessed as bacterial growth inhibtion incubated for 14 to 16 hrs. Format: functional. As to conditions: time 14-16 hrs.
Test [5] has as its system Staphylococcus aureus. The experiment in a line: Antibacterial activity against Meticillin-Sensitive Staphylococcus aureus assessed as bacterial growth inhibtion. The test is classed as functional.
Test [6] deals with Staphylococcus aureus. Kind of test: Antibacterial activity against Meticillin-Resistant Staphylococcus aureus assessed as bacterial growth inhibtion. Format: functional.
Test [7] has as its target T2, Cell division protein FtsZ (Staphylococcus aureus) (UniProt P0A031).
T2 sequence (whole entry): T1 sequence (P0A031 whole entry)
The experiment in a line: Inhibition of Staphylococcus aureus recombinant FTsZ at 50 uM by GTPase activity assay relative to control.

For test [8], the system named is Staphylococcus aureus. The experiment in a line: Antibacterial activity against Meticillin-Sensitive Staphylococcus aureus assessed as bacterial growth inhibtion incubated for 18 hrs by broth microdilution method. The test is classed as functional.
Test [9] deals with Staphylococcus aureus. The experiment in a line: Antibacterial activity against Meticillin-Resistant Staphylococcus aureus assessed as bacterial growth inhibtion incubated for 18 hrs by broth microdilution method. Format: functional.
The test system of test [10] is Staphylococcus aureus. Kind of test: Antibacterial activity against Meticillin-Sensitive Staphylococcus aureus assessed as bacterial growth inhibtion by resazurin colorimetric assay. Format: functional.
For test [11], the system named is Staphylococcus aureus. The experiment in a line: Antibacterial activity against Meticillin-Resistant Staphylococcus aureus assessed as bacterial growth inhibtion by resazurin colorimetric assay. The test is classed as functional. For orientation: The colour change of resazurin is a common sign of viable cells or microbes.
For the next test, the system named is Burkholderia cepacia. Kind of test: Antibacterial activity against Burkholderia cepacia assessed as bacterial growth inhibition by checkerboard assay. Format: functional.
Test [12] deals with T3, Cell division protein FtsZ (Escherichia coli K-12, UniProt P0A9A6).
T3 sequence (P0A9A6 whole entry): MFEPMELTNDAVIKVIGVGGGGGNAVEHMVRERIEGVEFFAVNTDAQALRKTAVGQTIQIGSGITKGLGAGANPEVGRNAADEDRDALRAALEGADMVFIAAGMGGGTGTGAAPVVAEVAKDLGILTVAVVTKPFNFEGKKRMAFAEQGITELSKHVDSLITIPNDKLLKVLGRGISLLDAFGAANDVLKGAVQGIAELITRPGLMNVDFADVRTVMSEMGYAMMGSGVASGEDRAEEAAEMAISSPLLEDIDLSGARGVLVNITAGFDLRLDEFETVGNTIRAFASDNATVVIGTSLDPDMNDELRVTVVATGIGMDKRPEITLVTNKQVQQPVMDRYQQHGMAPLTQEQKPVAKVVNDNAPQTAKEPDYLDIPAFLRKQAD
Kind of test: Inhibition of Escherichia coli recombinant FTsZ incubated for 10 mins in presence of GTP by spectrofluorimeter analysis.

Test [13] has as its system Staphylococcus aureus. The experiment in a line: Antibacterial activity against Staphylococcus aureus assessed as bacterial growth inhibition. The test is classed as functional.
The subject of the next test is Macrococcus caseolyticus. The experiment in a line: Antibacterial activity against Macrococcus caseolyticus assessed as bacterial growth inhibition. The note with it: Macrococcoides caseolyticum. Format: functional.
For a further test, the system named is Escherichia coli. Kind of test: Antibacterial activity against Escherichia coli assessed as bacterial growth inhibition. Format: functional.
The next test concerns Pseudomonas aeruginosa. Kind of test: Antibacterial activity against Pseudomonas aeruginosa assessed as bacterial growth inhibition. The test is classed as functional.
Test [14] is described as follows: Inhibition of FTsZ (unknown origin). Also noted: […].
Test [15] relates to Staphylococcus aureus. Kind of test: Antibacterial activity against Meticillin-Sensitive Staphylococcus aureus assessed as bacterial growth inhibtion incubated for 24 hrs by broth microdilution method. Format: functional.
For test [16], the system named is Staphylococcus aureus. The experiment in a line: Antibacterial activity against Meticillin-Resistant Staphylococcus aureus assessed as bacterial growth inhibtion incubated for 24 hrs by broth microdilution method. Format: functional.

In brackets after ≈: the same amount, converted by molar mass.

As for `CCC(CC)c1cc([C@H]2CN3CC[C@H]2C[C@@H]3CNCc2ccco2)nc(-c2ccncc2)n1`, the minimum inhibitory concentration (MIC) with Staphylococcus aureus [1] amounted to 26.9 µM (≈ 12 µg/mL). Further, the IC50 in test [2] was 55.7 µM.
For `Cc1nc(-c2cccs2)cc([C@H]2CN3CC[C@H]2C[C@@H]3CNC(=O)CCCC(=O)O)n1`, the MIC with Staphylococcus aureus [1] came to 897 µM (≈ 384 µg/mL). Besides, the half-inhibitory concentration (IC50) in [2] is 317 µM.
With `CCN(CC)CCNc1nc(/C=C/c2ccc(Cl)cc2)nc2cc3ccccc3cc12`, the minimal inhibitory concentration (MIC) with Staphylococcus aureus [3] stood at 5 µg/mL (≈ 11.6 µM); in the test with Staphylococcus aureus [4] it was 10 µg/mL (≈ 23.2 µM).
For the compound `CCC(CC)c1cc(CCN2CCCN(Cc3ccc(C(F)(F)F)cc3)CC2)nc(-c2ccncc2)n1`, the minimum inhibitory concentration (MIC) with Staphylococcus aureus [5] was 3 µg/mL (≈ 5.86 µM); in the test with Staphylococcus aureus [6], 6 µg/mL (≈ 11.7 µM). Also, in test [7], the inhibition came out at 20%.
On to `Cc1ccc(/C=C/c2nc(/C=C3\Sc4ccccc4N3CCCN3CCC(C)CC3)c3ccccc3[n+]2C)cc1.[I-]`, for which the MIC with Staphylococcus aureus [8] and with Staphylococcus aureus [9] was 2 µg/mL in each case.
With `COC(=O)CSc1ccc2nsnc2c1[N+](=O)[O-]`, the MIC was 2 µg/mL (≈ 7.01 µM) in the test with Staphylococcus aureus [10], 2 µg/mL (≈ 7.01 µM) in the test on Staphylococcus aureus [11] and 8 µg/mL in the test on Burkholderia cepacia.
`C[n+]1cc2c3c(ccc2c2ccc4cc5c(cc4c21)OCO5)OCO3` [SANGUINARIUM]: the IC50 in test [12] amounted to 3 µM.
As for `COc1ccc2cc3[n+](cc2c1OCCCOc1ccc(Cl)cc1)CCc1cc2c(cc1-3)OCO2.[Br-]`, the MIC in the test with Staphylococcus aureus [8] and in the test on Staphylococcus aureus [9] was 2 µg/mL each time.
Consider `Cc1n(Cc2ccc(Cl)cc2)c2ccccc2[n+]1Cc1ccc(Cl)cc1`, for which the MIC in the test on Staphylococcus aureus [5], with Staphylococcus aureus [13], in the test with Macrococcus caseolyticus, with Escherichia coli and with Pseudomonas aeruginosa was 5 µg/mL throughout.
Regarding `COc1ccc2cc3[n+](cc2c1OC)CCc1cc2c(cc1-3)OCO2` [BERBERINE], the IC50 in test [2] was found to be 10 µM.
In the case of `Cc1n(Cc2ccc(Cl)c(Cl)c2)c2ccccc2[n+]1Cc1ccc(Cl)c(Cl)c1`, the minimum inhibitory concentration (MIC) in the test with Staphylococcus aureus [5], in the test on Staphylococcus aureus [13], in the test with Macrococcus caseolyticus, in the test with Escherichia coli and in the test on Pseudomonas aeruginosa was 5 µg/mL in each case.
In the case of `Cc1ccc(/C=C/c2nc(/C=C3\Sc4ccccc4N3C)c3ccccc3[n+]2C)cc1.[I-]`, the MIC in the test on Staphylococcus aureus [8] and in the test on Staphylococcus aureus [9] was 2 µg/mL throughout.
For the compound `NC(=O)c1c(F)ccc(OCc2nc3cc(Cl)cnc3s2)c1F`, the MIC in the test with Staphylococcus aureus [5] and in the test with Staphylococcus aureus [6] was 1 µg/mL (≈ 2.81 µM) throughout. In addition, the IC50 in test [14] is 0.055 µg/mL (≈ 0.155 µM).
With `Cc1n(Cc2ccccc2)c2ccccc2[n+]1Cc1ccc(Cl)c(Cl)c1`, the MIC in the test with Staphylococcus aureus [5], in the test on Staphylococcus aureus [13], in the test with Macrococcus caseolyticus, with Escherichia coli and with Pseudomonas aeruginosa was 5 µg/mL each time.
`CCC(CC)c1cc([C@H]2CN3CC[C@H]2C[C@@H]3CNCc2ccc(CO)o2)nc(-c2ccncc2)n1`: in the test with Staphylococcus aureus [1], the MIC stood at 50.5 µM (≈ 24 µg/mL). Also, the half-maximal inhibitory concentration (IC50) in test [2] is 77.2 µM.
As for `CN(C)CNC(=O)c1c(F)ccc(OCc2nc3cc(Cl)ccc3s2)c1F`, the MIC with Staphylococcus aureus [15] and in the test on Staphylococcus aureus [16] was 0.5 µg/mL (≈ 1.21 µM) throughout.
In the case of `CCC(CC)c1cc([C@H]2CN3CC[C@H]2C[C@@H]3CN)nc(-c2ccncc2)n1`, the minimum inhibitory concentration (MIC) in the test on Staphylococcus aureus [1] was found to be 24.6 µM (≈ 8.99 µg/mL).

What is called MIC is the smallest concentration in the dilution series that meets the test's criterion for growth inhibition. Usually IC50 stands for the concentration at which inhibition is half-maximal. The inhibition is the drop in the measured response relative to a control, in per cent.
